13 compounds from PubChem BioAssay (NCI) can be followed below.

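Five concentrations, 48 hours, 96-well plates. TGI denotes the concentration required for complete inhibition of growth.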

Holding throughout (assay): growth of human tumour cells (NCI), 48 h
The test system of experiment [1] is SK-OV-3 ovarian.
Experiment [2] relates to U251 CNS.
Experiment [3] concerns MCF7 breast.
The test system of experiment [4] is UACC-62 melanoma.
The test system of experiment [5] is RXF 393 renal.
Experiment [6] concerns EKVX NSCLC.
For experiment [7], the system named is SW-620 colon.
In experiment [8] the test system is KM12 colon.
For experiment [9], the system named is SK-MEL-2 melanoma.
The subject of experiment [10] is CCRF-CEM leukemia.
Experiment [11] relates to LOX IMVI melanoma.
Experiment [12] relates to SR leukemia.

Turning to `Cn1c(=O)c2c(ncn2CCSS(=O)(=O)O)n(C)c1=O`, the TGI in [1], in [2], in experiment [3], in experiment [4], in experiment [5] and in [6] was more than 100 µM throughout. The TGI in experiment [7], in [8] and in experiment [9] was more than 100 µM each time.
For `Clc1ccc2c(c1)CC1C[N+]3=C(CCCC3)C1=C2` (stereo unspecified), the TGI in [1], in [2], in [3], in experiment [10], in [4] and in experiment [11] was more than 100 µM each time. Besides, the TGI in experiment [5], in experiment [6], in experiment [7], in experiment [8] and in experiment [9] was more than 100 µM in each case.
Turning to `C[N+](C)(C)Cc1c(CC#N)[nH]c2ccccc12`, the TGI in [12], in [2], in experiment [10], in experiment [4], in [11] and in [5] was more than 100 µM in each case. For the same compound, the TGI in [6], in experiment [7], in [8] and in experiment [9] was more than 100 µM in each case.
In the case of `CNC(=O)c1n[nH]n(Cc2ccccc2)c1=S`, the TGI in [1], in experiment [2], in [3], in [10], in [4] and in experiment [5] was more than 100 µM in each case. Moreover, the TGI in [6], in experiment [7], in experiment [8] and in experiment [9] was more than 100 µM in each case.
Turning to `CC(C)[Si](OCC1CC(C[C@H]2CC(C[C@H]3C[C@@H](CO[Si](C(C)C)(C(C)C)C(C)C)OC(C)(C)O3)OC(C)(C)O2)OC(C)(C)O1)(C(C)C)C(C)C` (stereo partly specified), the TGI in [12], in experiment [1], in experiment [2], in experiment [10], in [4] and in experiment [11] was more than 100 µM in each case. Further, the TGI in experiment [5], in experiment [6], in [7], in experiment [8] and in [9] was more than 100 µM throughout.
Turning to `O=C(N/N=C/C=C/c1ccc([N+](=O)[O-])o1)c1ccc(Br)s1`, the TGI in experiment [1] was more than 100 µM; in experiment [2] it was more than 100 µM; in [3] it was more than 100 µM; in experiment [10], more than 100 µM; in experiment [4], 49.5 µM; in [11], 60.7 µM. The TGI in experiment [5] was 30.9 µM; in [6], 95.9 µM; in experiment [7], 71.6 µM; in [8], 40.5 µM; in experiment [9] it was 56.3 µM.
For `C=CCOC(=O)CCCCCCCCCCCCCCCOC(=O)c1c(CCC[C@@H](C)O[Si](C)(C)C(C)(C)C)nc(=O)n2c1CC[C@H]2CC1(CC/C=C\[C@H](CC)O[Si](C(C)C)(C(C)C)C(C)C)OCCO1`, the TGI in experiment [1] is more than 100 µM; in experiment [2], 31.8 µM; in experiment [3], more than 100 µM; in [10], more than 100 µM; in experiment [4], more than 100 µM; in experiment [6] it was more than 100 µM. Moreover, the TGI in [8] and in experiment [9] was more than 100 µM each time.
As to `N#CC(C#N)=Cc1ccc(C=C2SC3=C(SCCS3)S2)s1`, the TGI in experiment [1], in experiment [2], in [3], in [10], in experiment [4] and in experiment [6] was more than 100 µM in each case. In addition, the TGI in experiment [7], in [8] and in [9] was more than 100 µM in each case.
Regarding `O=c1[nH]c(=O)n(C2CC(O)C(CO)O2)cc1C#Cc1cc(C(F)(F)F)cc(C(F)(F)F)c1` (stereo unspecified), the TGI in experiment [12] was more than 100 µM; in [1], more than 100 µM; in experiment [2] it was more than 100 µM; in [10] it was more than 100 µM; in experiment [4], more than 31.6 µM; in experiment [11], more than 45.9 µM. The TGI in experiment [5] is 39 µM; in [6] it was more than 100 µM; in experiment [7], more than 100 µM; in experiment [8], more than 100 µM; in experiment [9], more than 100 µM.
Take `COc1cc2c(oc(=O)c3cc4ccoc4c(OC)c32)c2cccc(O)c12`: the TGI in experiment [12], in experiment [1], in [2], in [10], in [4] and in [11] was more than 100 µM throughout. In addition, the TGI in [5], in [6], in experiment [7], in experiment [8] and in experiment [9] was more than 100 µM each time.
As to `Cc1ccc(S(=O)C[C@@]2(C(F)F)NC(=O)NC2=O)cc1` (stereo partly specified), the TGI in experiment [12], in experiment [1], in experiment [2], in experiment [10], in experiment [4] and in [11] was more than 100 µM in each case. The TGI in [5], in experiment [6], in [7], in [8] and in experiment [9] was more than 100 µM each time.
`Cc1ccc(S(=O)(=O)N/N=C/c2oc(-c3ccccc3Cl)c(-c3ccccc3Cl)c2[N+](=O)[O-])cc1`: the TGI was 64.6 µM in experiment [12]; more than 100 µM in [1]; more than 100 µM in experiment [10]; 65.8 µM in [4]; 28.4 µM in [5]; more than 100 µM in experiment [6]. The TGI was more than 100 µM in [7], more than 100 µM in experiment [8] and 76.9 µM in [9].
Regarding `O=C(Nc1nncs1)NS(=O)(=O)n1cnc2ccccc21`, the TGI in experiment [12], in experiment [1], in [2], in experiment [10], in [4] and in experiment [5] was more than 100 µM in each case. Moreover, the TGI in experiment [6], in experiment [7], in experiment [8] and in experiment [9] was more than 100 µM each time.
